Measurements as given in the CheMixHub viscosity set.

Assay: xn = mol fraction of the nth substance listed

O=[N+]([O-])[O-].[Na+] + O
viscosity [mPa·s]
Conditions	293.15 K	298.15 K	303.15 K	308.15 K	313.15 K	318.15 K
101 kPa, x1 = 0.0371	–	–	–	–	0.78	–
101 kPa, x1 = 0.0564	–	1.19	–	–	0.89	–
101 kPa, x1 = 0.0768	–	1.3	–	–	1.02	–
101 kPa, x1 = 0.0978	–	1.63	–	–	1.2	–
101 kPa, x1 = 0.12	–	1.92	–	–	1.41	–
101.1 kPa, x1 = 0.0001893	1.003	0.892	0.799	0.721	0.654	0.598
101.1 kPa, x1 = 0.0007456	1.004	0.893	0.8	0.722	0.655	0.6
101.1 kPa, x1 = 0.0018	1.007	0.895	0.803	0.725	0.658	0.602
101.1 kPa, x1 = 0.007199	1.02	0.909	0.817	0.738	0.662	0.608
101.1 kPa, x1 = 0.01603	1.032	0.923	0.83	0.75	0.676	0.618
101.1 kPa, x1 = 0.0211	1.052	0.934	0.836	0.754	0.682	0.623
101.3 kPa, x1 = 0.0009	1.005	0.8932	0.8005	0.7222	–	0.5989
101.3 kPa, x1 = 0.0018	1.007	0.8955	0.8028	0.7247	–	0.6018
101.3 kPa, x1 = 0.00893	1.025	0.915	0.8225	0.7446	–	0.6207
101.3 kPa, x1 = 0.0177	1.058	0.9465	0.853	0.7732	–	0.6476
101.3 kPa, x1 = 0.03478	1.15	1.032	0.9323	0.8482	–	0.7131
101.3 kPa, x1 = 0.05127	1.275	1.144	1.034	0.9397	–	0.7913
101.3 kPa, x1 = 0.06722	1.418	1.271	1.148	1.043	–	0.8782
101.3 kPa, x1 = 0.09755	1.796	1.604	1.444	1.309	–	1.097
101.3 kPa, x1 = 0.126	2.231	1.983	1.778	1.606	–	1.338
101.33 kPa, x1 = 0.000905	–	–	–	0.7324	0.6609	–
101.33 kPa, x1 = 0.002718	–	–	–	0.7422	0.6695	–
101.33 kPa, x1 = 0.00453	–	–	–	0.7525	0.6763	–
101.33 kPa, x1 = 0.006344	–	–	–	0.7606	0.6855	–
101.33 kPa, x1 = 0.008159	–	–	–	0.7705	0.6992	–
101.33 kPa, x2 = 0.84	3.04	–	–	–	–	–
101.33 kPa, x2 = 0.86	2.507	–	–	–	–	–
101.33 kPa, x2 = 0.88	2.15	–	–	–	–	–
101.33 kPa, x2 = 0.89	2.088	–	–	–	–	–
101.33 kPa, x2 = 0.91	1.752	–	–	–	–	–
101.33 kPa, x2 = 0.92	1.502	–	–	–	–	–
101.33 kPa, x2 = 0.94	1.384	–	–	–	–	–
